According to the supplement of paper PMC11208160:

Assay: recombinant barcode read abundance after kanamycin selection (control-corrected) (log10(CPM+1)); higher = more efficient recombination; sequences stand for … in AGTGCAGAGAAAATCGGCCAGTTTTCTCTGCCTGCAGTCCGCATGCCGT…AGATTTATGCAGCGGACTGCCTTTCTCCCAAAGTGATAAACCGGACAGTATCATGGACCGGTTTTCCCGGTAATCCGTATTTGCAAGGTTGGTTTCACT; site = the 11-nt target
In short: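 Recombination efficiency draws on barcodes counted at recombinant junctions in a pooled E. coli screen of targets paired with IS621 bridge RNA target-binding loops. The counts were converted to counts per million, averaged and corrected against the chloramphenicol/ampicillin LB agar control, then reported as log10(CPM+1). Selection plates held chloramphenicol/ampicillin/kanamycin with 0.1 mM IPTG, with two replicates per condition.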
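Note: IS621 recombinase and bridge RNA in Escherichia coli cells.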

Sequence: GGCCGGCCTTGGGTTCTAACCTGTTGCCT (site GGCCGGACTAG)
- recombinant barcode read abundance (log10): 0.0681

Sequence: GGCCGGCCTTGGGTTCTAACCTGTTGCCT (site GGCCGGCCTAG)
- recombinant barcode read abundance (log10): 0.128

Sequence: GGCCGGCCTTGGGTTCTAACCTGTTGCCT (site GGCCGGGCTAG)
- recombinant barcode read abundance (log10): 1.02

Sequence: GGCCGGCCTTGGGTTCTAACCTGTTGCCT (site GGCCGGTCTAG)
- recombinant barcode read abundance (log10): 0.191

Sequence: GGCCGGTCTTGGGTTCTAACCTGTTGCCT (site GGCCGGACTAG)
- recombinant barcode read abundance (log10): 0

Sequence: GGCCGGTCTTGGGTTCTAACCTGTTGCCT (site GGCCGGCCTAG)
- recombinant barcode read abundance (log10): 0.248

Sequence: GGCCGGTCTTGGGTTCTAACCTGTTGCCT (site GGCCGGGCTAG)
- recombinant barcode read abundance (log10): 0.0483

Sequence: GGCCGGTCTTGGGTTCTAACCTGTTGCCT (site GGCCGGTCTAG)
- recombinant barcode read abundance (log10): 1.78

Sequence: GGCGTAGCTTGGGTTCTAACCTGTTGCCT (site GACGTAGCTAG)
- recombinant barcode read abundance (log10): 0.416

Sequence: GGCGTAGCTTGGGTTCTAACCTGTTGCCT (site GCCGTAGCTAG)
- recombinant barcode read abundance (log10): 0.624

Sequence: GGCGTAGCTTGGGTTCTAACCTGTTGCCT (site GGCGTAGCTAG)
- recombinant barcode read abundance (log10): 2.37

Sequence: GGCGTAGCTTGGGTTCTAACCTGTTGCCT (site GTCGTAGCTAG)
- recombinant barcode read abundance (log10): 0.227

Sequence: GGCTCCTCTTGGGTTCTAACCTGTTGCCT (site AGCTCCTCTAG)
- recombinant barcode read abundance (log10): 0.849

Sequence: GGCTCCTCTTGGGTTCTAACCTGTTGCCT (site CGCTCCTCTAG)
- recombinant barcode read abundance (log10): 0.0966

Sequence: GGCTCCTCTTGGGTTCTAACCTGTTGCCT (site GGCTCCTCTAG)
- recombinant barcode read abundance (log10): 0.733

Sequence: GGCTCCTCTTGGGTTCTAACCTGTTGCCT (site TGCTCCTCTAG)
- recombinant barcode read abundance (log10): 0.0949

Sequence: GGCTTACCTTGGGTTCTAACCTGTTGCCT (site AGCTTACCTAG)
- recombinant barcode read abundance (log10): 0.0239

Sequence: GGCTTACCTTGGGTTCTAACCTGTTGCCT (site CGCTTACCTAG)
- recombinant barcode read abundance (log10): 0.0687

Sequence: GGCTTACCTTGGGTTCTAACCTGTTGCCT (site GGCTTACCTAG)
- recombinant barcode read abundance (log10): 0.556

Sequence: GGCTTACCTTGGGTTCTAACCTGTTGCCT (site TGCTTACCTAG)
- recombinant barcode read abundance (log10): 0.395

Sequence: GGCTTGTCTTGGGTTCTAACCTGTTGCCT (site GGCATGTCTAG)
- recombinant barcode read abundance (log10): 0.0663

Sequence: GGCTTGTCTTGGGTTCTAACCTGTTGCCT (site GGCTTGTCTAG)
- recombinant barcode read abundance (log10): 0.655

Sequence: GGGAACGCTTGGGTTCTAACCTGTTGCCT (site GGGAACGCTAG)
- recombinant barcode read abundance (log10): 2.85

Sequence: GGGAACGCTTGGGTTCTAACCTGTTGCCT (site GGGAATGCTAG)
- recombinant barcode read abundance (log10): 0.0432

Sequence: GGGACATCTTGGGTTCTAACCTGTTGCCT (site GGGACATCTAG)
- recombinant barcode read abundance (log10): 0.987

Sequence: GGGACATCTTGGGTTCTAACCTGTTGCCT (site GGGGCATCTAG)
- recombinant barcode read abundance (log10): 0.015

Sequence: GGGACCACTTGGGTTCTAACCTGTTGCTA (site GGGACCACTTA)
- recombinant barcode read abundance (log10): 1.77

Sequence: GGGACCACTTGGGTTCTAACCTGTTGCTA (site TTCGGACCTCC)
- recombinant barcode read abundance (log10): 0.0578

Sequence: GGGACCTCTTGGGTTCTAACCTGTTGCTC (site GGGACCTCTGA)
- recombinant barcode read abundance (log10): 1.24

Sequence: GGGACCTCTTGGGTTCTAACCTGTTGCTC (site GTGACCTCTCA)
- recombinant barcode read abundance (log10): 0.167

Sequence: GGGACGACTTGGGTTCTAACCTGTTGCTA (site GGGACGACTAA)
- recombinant barcode read abundance (log10): 0.161

Sequence: GGGACGACTTGGGTTCTAACCTGTTGCTA (site GGGACGACTTA)
- recombinant barcode read abundance (log10): 1.35

Sequence: GGGATACCTTGGGTTCTAACCTGTTGCCT (site GCGTTACCTAG)
- recombinant barcode read abundance (log10): 0.0414

Sequence: GGGATACCTTGGGTTCTAACCTGTTGCCT (site GGGATACCTAG)
- recombinant barcode read abundance (log10): 2.6

Sequence: GGGCACTCTTGGGTTCTAACCTGTTGCAT (site GGGCACTCTAA)
- recombinant barcode read abundance (log10): 0.75

Sequence: GGGCACTCTTGGGTTCTAACCTGTTGCAT (site GGGCACTCTAC)
- recombinant barcode read abundance (log10): 0.132

Sequence: GGGCACTCTTGGGTTCTAACCTGTTGCAT (site GGGCACTCTAG)
- recombinant barcode read abundance (log10): 0.606

Sequence: GGGCACTCTTGGGTTCTAACCTGTTGCAT (site GGGCACTCTAT)
- recombinant barcode read abundance (log10): 2.22

Sequence: GGGCACTCTTGGGTTCTAACCTGTTGCCT (site GGGCACTCTAA)
- recombinant barcode read abundance (log10): 0.122

Sequence: GGGCACTCTTGGGTTCTAACCTGTTGCCT (site GGGCACTCTAC)
- recombinant barcode read abundance (log10): 0.0754

Sequence: GGGCACTCTTGGGTTCTAACCTGTTGCCT (site GGGCACTCTAG)
- recombinant barcode read abundance (log10): 1.22

Sequence: GGGCACTCTTGGGTTCTAACCTGTTGCCT (site GGGCACTCTAT)
- recombinant barcode read abundance (log10): 0.585

Sequence: GGGCACTCTTGGGTTCTAACCTGTTGCTT (site GGGCACTCTAA)
- recombinant barcode read abundance (log10): 1.93

Sequence: GGGCACTCTTGGGTTCTAACCTGTTGCTT (site GGGCACTCTAC)
- recombinant barcode read abundance (log10): 0.503

Sequence: GGGCACTCTTGGGTTCTAACCTGTTGCTT (site GGGCACTCTAG)
- recombinant barcode read abundance (log10): 1.35

Sequence: GGGCACTCTTGGGTTCTAACCTGTTGCTT (site GGGCACTCTAT)
- recombinant barcode read abundance (log10): 1.54

Sequence: GGGCAGGCTTGGGTTCTAACCTGTTGCCT (site ATCGTATCTGC)
- recombinant barcode read abundance (log10): 0.189

Sequence: GGGCAGGCTTGGGTTCTAACCTGTTGCCT (site GGGCAGGCTAG)
- recombinant barcode read abundance (log10): 0.969

Sequence: GGGCCCGCTTGGGTTCTAACCTGTTGCTA (site GGGCCCGCTTA)
- recombinant barcode read abundance (log10): 1.68

Sequence: GGGCCCGCTTGGGTTCTAACCTGTTGCTA (site GGTCCCGCTTG)
- recombinant barcode read abundance (log10): 0.0696

Sequence: GGGCCTACTTGGGTTCTAACCTGTTGCTC (site GGGCCTACTAA)
- recombinant barcode read abundance (log10): 0.248

Sequence: GGGCCTACTTGGGTTCTAACCTGTTGCTC (site GGGCCTACTCA)
- recombinant barcode read abundance (log10): 0.0546

Sequence: GGGCCTACTTGGGTTCTAACCTGTTGCTC (site GGGCCTACTGA)
- recombinant barcode read abundance (log10): 0.29

Sequence: GGGCCTACTTGGGTTCTAACCTGTTGCTC (site GGGCCTACTTA)
- recombinant barcode read abundance (log10): 0.171

Sequence: GGGCCTACTTGGGTTCTAACCTGTTGCTT (site GGGCCTACTAA)
- recombinant barcode read abundance (log10): 0.914

Sequence: GGGCCTACTTGGGTTCTAACCTGTTGCTT (site GGGCCTACTCA)
- recombinant barcode read abundance (log10): 0.369

Sequence: GGGCCTACTTGGGTTCTAACCTGTTGCTT (site GGGCCTACTGA)
- recombinant barcode read abundance (log10): 0.255

Sequence: GGGCCTACTTGGGTTCTAACCTGTTGCTT (site GGGCCTACTTA)
- recombinant barcode read abundance (log10): 0.063

Sequence: GGGCCTTCTTGGGTTCTAACCTGTTGCAT (site GGGACTTCTAT)
- recombinant barcode read abundance (log10): 0.24

Sequence: GGGCCTTCTTGGGTTCTAACCTGTTGCAT (site GGGCCTTCTAT)
- recombinant barcode read abundance (log10): 1.07

Sequence: GGGCCTTCTTGGGTTCTAACCTGTTGCAT (site GGGGCTTCTAT)
- recombinant barcode read abundance (log10): 0.31

Sequence: GGGCCTTCTTGGGTTCTAACCTGTTGCAT (site GGGTCTTCTAT)
- recombinant barcode read abundance (log10): 0.0646

Sequence: GGGGACCCTTGGGTTCTAACCTGTTGCGA (site GGGGACCCTAC)
- recombinant barcode read abundance (log10): 1.74

Sequence: GGGGACCCTTGGGTTCTAACCTGTTGCGA (site GGGGACCCTCC)
- recombinant barcode read abundance (log10): 0.877

Sequence: GGGGACCCTTGGGTTCTAACCTGTTGCGA (site GGGGACCCTGC)
- recombinant barcode read abundance (log10): 0.247

Sequence: GGGGACCCTTGGGTTCTAACCTGTTGCGA (site GGGGACCCTTC)
- recombinant barcode read abundance (log10): 2.48

Sequence: GGGGACCCTTGGGTTCTAACCTGTTGCGC (site GGGGACCCTAC)
- recombinant barcode read abundance (log10): 2.24

Sequence: GGGGACCCTTGGGTTCTAACCTGTTGCGC (site GGGGACCCTCC)
- recombinant barcode read abundance (log10): 0.0282

Sequence: GGGGACCCTTGGGTTCTAACCTGTTGCGC (site GGGGACCCTGC)
- recombinant barcode read abundance (log10): 3.3

Sequence: GGGGACCCTTGGGTTCTAACCTGTTGCGC (site GGGGACCCTTC)
- recombinant barcode read abundance (log10): 0.283

Sequence: GGGGAGCCTTGGGTTCTAACCTGTTGCGG (site GGGGAGCCTCC)
- recombinant barcode read abundance (log10): 2.38

Sequence: GGGGAGCCTTGGGTTCTAACCTGTTGCGG (site GGGGATCCTTC)
- recombinant barcode read abundance (log10): 0.335

Sequence: GGGGCACCTTGGGTTCTAACCTGTTGCGT (site GGGGCACCTAA)
- recombinant barcode read abundance (log10): 1.16

Sequence: GGGGCACCTTGGGTTCTAACCTGTTGCGT (site GGGGCACCTAC)
- recombinant barcode read abundance (log10): 3.72

Sequence: GGGGCACCTTGGGTTCTAACCTGTTGCGT (site GGGGCACCTAG)
- recombinant barcode read abundance (log10): 0.492

Sequence: GGGGCACCTTGGGTTCTAACCTGTTGCGT (site GGGGCACCTAT)
- recombinant barcode read abundance (log10): 2.61

Sequence: GGGGCATCTTGGGTTCTAACCTGTTGCCT (site GGGACATCTAG)
- recombinant barcode read abundance (log10): 0.105

Sequence: GGGGCATCTTGGGTTCTAACCTGTTGCCT (site GGGGCATCTAG)
- recombinant barcode read abundance (log10): 0.0863

Sequence: GGGGCATCTTGGGTTCTAACCTGTTGCTT (site GGGGCATCTAA)
- recombinant barcode read abundance (log10): 0.95

Sequence: GGGGCATCTTGGGTTCTAACCTGTTGCTT (site GGGGCCTCTAA)
- recombinant barcode read abundance (log10): 0.0583

Sequence: GGGGCATCTTGGGTTCTAACCTGTTGCTT (site GGGGCGTCTAA)
- recombinant barcode read abundance (log10): 0.0873

Sequence: GGGGCATCTTGGGTTCTAACCTGTTGCTT (site GGGGCTTCTAA)
- recombinant barcode read abundance (log10): 0.0362

Sequence: GGGGCCTCTTGGGTTCTAACCTGTTGCAG (site GGGGCCTCTCT)
- recombinant barcode read abundance (log10): 3.05

Sequence: GGGGCCTCTTGGGTTCTAACCTGTTGCAG (site GGTGCCTCTAT)
- recombinant barcode read abundance (log10): 0.213

Sequence: GGGGCGACTTGGGTTCTAACCTGTTGCCT (site GGGGCGACTAG)
- recombinant barcode read abundance (log10): 0.358

Sequence: GGGGCGACTTGGGTTCTAACCTGTTGCCT (site GGGGCGCCTAG)
- recombinant barcode read abundance (log10): 0.0568
